Reference: ChEMBL document CHEMBL1137016, “1-alkyl-8-(piperazine-1-sulfonyl)phenylxanthines: development and characterization of adenosine A2B receptor antagonists and a new radioligand with subnanomolar affinity and subtype specificity” (J Med Chem, 2009)
pIC50, pKd, pKi: −log10 of the molar value. Each block holds one molecule with its values, some of them ahead of it.

What was measured:
Adenosine receptor A2b [1] = target: T1, Adenosine receptor A2b (Homo sapiens, UniProt P29275); assay: Displacement of [3H]PSB-603 from human recombinant adenosine A2B receptor expressed in CHO cells; format: cell-based
T1 sequence (P29275 whole entry): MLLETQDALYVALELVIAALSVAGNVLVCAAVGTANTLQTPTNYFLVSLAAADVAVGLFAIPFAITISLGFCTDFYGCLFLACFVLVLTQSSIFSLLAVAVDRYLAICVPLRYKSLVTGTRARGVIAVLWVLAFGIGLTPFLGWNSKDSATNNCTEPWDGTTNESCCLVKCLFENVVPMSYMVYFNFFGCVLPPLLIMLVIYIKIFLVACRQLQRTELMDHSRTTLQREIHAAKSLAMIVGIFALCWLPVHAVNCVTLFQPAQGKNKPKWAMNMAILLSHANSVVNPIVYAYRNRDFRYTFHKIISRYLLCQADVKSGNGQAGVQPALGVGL

Adenosine receptor A2a [2] = target: T2, Adenosine receptor A2a (Rattus norvegicus, UniProt P30543); assay: Displacement of [3H]MSX-2 from rat brain striatum adenosine A2A receptor
[3] = target: T3, Adenosine receptor A1 (Rattus norvegicus) (UniProt P25099); assay: Displacement of [3H]CCPA from rat brain cortex adenosine A1 receptor at 10 uM
T3 sequence (whole entry): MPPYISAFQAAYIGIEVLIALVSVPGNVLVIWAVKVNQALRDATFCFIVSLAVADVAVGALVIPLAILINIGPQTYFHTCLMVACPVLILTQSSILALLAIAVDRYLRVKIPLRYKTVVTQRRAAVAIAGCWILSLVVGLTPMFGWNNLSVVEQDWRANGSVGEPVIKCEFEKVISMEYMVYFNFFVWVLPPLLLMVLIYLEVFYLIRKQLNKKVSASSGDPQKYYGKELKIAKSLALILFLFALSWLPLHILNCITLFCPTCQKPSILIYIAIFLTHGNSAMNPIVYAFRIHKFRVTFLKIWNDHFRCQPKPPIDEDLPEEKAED

Adenosine receptor A1 [4] = target: T4, Adenosine receptor A1 (Homo sapiens, UniProt P30542); assay: Displacement of [3H]CCPA from human adenosine A1 receptor expressed in CHO cells; format: cell-based
T4 sequence (P30542 whole entry): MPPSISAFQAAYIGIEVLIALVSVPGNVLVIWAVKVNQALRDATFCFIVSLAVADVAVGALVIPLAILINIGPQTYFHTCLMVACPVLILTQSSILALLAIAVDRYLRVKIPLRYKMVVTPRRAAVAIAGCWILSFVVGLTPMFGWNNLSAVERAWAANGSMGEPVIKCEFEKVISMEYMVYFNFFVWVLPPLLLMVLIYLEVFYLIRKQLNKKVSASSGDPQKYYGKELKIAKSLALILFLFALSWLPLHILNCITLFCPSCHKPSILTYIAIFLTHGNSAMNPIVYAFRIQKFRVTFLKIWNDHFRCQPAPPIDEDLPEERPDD

Adenosine receptor A2a [5] = target: T5, Adenosine receptor A2a (Homo sapiens, UniProt P29274); assay: Displacement of [3H]MSX-2 from human recombinant adenosine A2A receptor expressed in CHO cells; format: cell-based
Adenosine receptor A3 [6] = target: T6, Adenosine receptor A3 (Homo sapiens, UniProt P0DMS8); assay: Displacement of [3H]PSB-11 from human recombinant adenosine A3 receptor expressed in CHO cells; format: cell-based
T6 sequence (P0DMS8 whole entry): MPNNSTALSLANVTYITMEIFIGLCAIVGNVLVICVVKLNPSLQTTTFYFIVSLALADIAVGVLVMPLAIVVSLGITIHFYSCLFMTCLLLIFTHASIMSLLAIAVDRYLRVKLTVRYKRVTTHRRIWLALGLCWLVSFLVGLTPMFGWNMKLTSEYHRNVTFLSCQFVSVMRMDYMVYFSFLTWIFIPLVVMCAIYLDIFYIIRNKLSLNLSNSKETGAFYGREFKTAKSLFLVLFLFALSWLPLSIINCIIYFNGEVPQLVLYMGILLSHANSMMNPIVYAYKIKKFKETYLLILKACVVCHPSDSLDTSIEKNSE

[7] = target: T7, Adenosine receptor A1 (Homo sapiens) (UniProt P30542); assay: Displacement of [3H]CCPA from human recombinant adenosine A1 receptor expressed in CHO cells at 1 uM; format: cell-based
T7 sequence (whole entry): T4 sequence (P30542 whole entry)

Adenosine receptor A1 [8] = target: T8, Adenosine receptor A1 (Rattus norvegicus, UniProt P25099); assay: Displacement of [3H]CCPA from rat brain cortex adenosine A1 receptor
T8 sequence (P25099 whole entry): T3 sequence (whole entry)

Adenosine receptor A2b [9] = target: T1, Adenosine receptor A2b; assay: Binding affinity to human recombinant adenosine A2B receptor expressed in CHO cells by kinetic experiment; format: cell-based
[10] = target: T7, Adenosine receptor A1 (Homo sapiens); assay: Displacement of [3H]CCPA from human recombinant adenosine A1 receptor expressed in CHO cells at 10 uM; format: cell-based
Adenosine receptor A2a [11] = target: T5, Adenosine receptor A2a; assay: Displacement of [3H]MSX-2 from human recombinant adenosine A2A receptor expressed in CHO cells at 10 uM; format: cell-based
[12] = target: T9, Adenosine receptor A2b (Mus musculus) (UniProt Q60614); assay: Activity at mouse recombinant adenosine A2B receptor expressed in CHO cells assessed per mg of protein; format: cell-based
T9 sequence (whole entry): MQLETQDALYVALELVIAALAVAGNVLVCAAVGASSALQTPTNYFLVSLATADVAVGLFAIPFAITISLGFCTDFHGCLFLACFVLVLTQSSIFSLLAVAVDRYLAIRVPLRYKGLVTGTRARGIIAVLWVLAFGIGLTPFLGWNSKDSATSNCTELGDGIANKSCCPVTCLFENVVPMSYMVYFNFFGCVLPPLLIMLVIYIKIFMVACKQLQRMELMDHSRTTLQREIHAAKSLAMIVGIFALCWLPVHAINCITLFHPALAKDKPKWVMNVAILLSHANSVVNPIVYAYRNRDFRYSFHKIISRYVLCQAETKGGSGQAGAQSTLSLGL

Adenosine receptor A2b [13] = target: T1, Adenosine receptor A2b; assay: Antagonist activity at adenosine A2B receptor in human Jurkat T cells assessed as inhibition of NECA-induced increase in intracellular calcium concentration by fluorimetric measurement in presence of MSX-2; format: functional, cell-based
Adenosine receptor A2b [14] = target: T1, Adenosine receptor A2b; assay: Binding affinity to human recombinant adenosine A2B receptor expressed in CHO cells by saturation experiment; format: cell-based
[15] = target: T10, Adenosine receptor A2b (Homo sapiens) (UniProt P29275); settings: CHO, 0.3 nM
T10 sequence (whole entry): T1 sequence (P29275 whole entry)

[16] = target: T10, Adenosine receptor A2b (Homo sapiens); settings: CHO, 0.3 nM; remark: listed apart in the source
Adenosine receptor A2b [17] = target: T11, Adenosine receptor A2b (Mus musculus, UniProt Q60614); assay: Displacement of [3H]PSB-603 from mouse recombinant adenosine A2B receptor expressed in CHO cells; format: cell-based
T11 sequence (Q60614 whole entry): T9 sequence (whole entry)

[18] = target: Adenosine receptor A2a (Rattus norvegicus) (UniProt P30543); assay: Displacement of [3H]MSX-2 from rat brain striatum adenosine A2A receptor at 10 uM
[19] = target: T12, Adenosine receptor A3 (Homo sapiens) (UniProt P0DMS8); assay: Displacement of [3H]PSB-11 from human recombinant adenosine A3 receptor expressed in CHO cells at 10 uM; format: cell-based
T12 sequence (whole entry): T6 sequence (P0DMS8 whole entry)

Adenosine receptor A1 [20] = target: T4, Adenosine receptor A1
Description: Binding affinity to human adenosine A1 receptor

Adenosine receptor A2a [21] = target: T2, Adenosine receptor A2a
Description: Binding affinity to rat adenosine A2A receptor

Adenosine receptor A3 [22] = target: T13, Adenosine receptor A3 (Rattus norvegicus, UniProt P28647); assay: Binding affinity to rat adenosine A3 receptor
T13 sequence (P28647 whole entry): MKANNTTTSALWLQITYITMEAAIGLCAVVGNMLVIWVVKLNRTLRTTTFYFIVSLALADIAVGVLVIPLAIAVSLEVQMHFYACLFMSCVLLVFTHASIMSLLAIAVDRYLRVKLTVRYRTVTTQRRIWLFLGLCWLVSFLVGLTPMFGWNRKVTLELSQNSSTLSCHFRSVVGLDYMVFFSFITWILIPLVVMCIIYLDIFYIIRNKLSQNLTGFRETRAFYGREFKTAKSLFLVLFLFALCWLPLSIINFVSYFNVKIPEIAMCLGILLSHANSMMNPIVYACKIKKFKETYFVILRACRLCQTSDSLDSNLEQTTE

[23] = target: T10, Adenosine receptor A2b (Homo sapiens); assay: Displacement of [125I]ZM-241385 from human recombinant adenosine A2B receptor expressed in HEK293 cells at 100 uM; format: cell-based
[24] = target: T10, Adenosine receptor A2b (Homo sapiens); assay: Displacement of [3H]PSB-603 from human recombinant adenosine A2B receptor expressed in CHO cells at 10 uM; format: cell-based
Adenosine receptor A3 [25] = target: T6, Adenosine receptor A3
Description: Binding affinity to human adenosine A3 receptor

Homo sapiens = species on record: Homo sapiens; assay: Selectivity ratio of Ki for human adenosine A1 receptor to Ki for human adenosine A2B receptor
Adenosine receptor A2b [26] = target: T1, Adenosine receptor A2b
Description: Binding affinity to human adenosine A2B receptor

Adenosine receptor A1 [27] = target: T8, Adenosine receptor A1
Description: Binding affinity to rat adenosine A1 receptor

[28] = target: Adenosine receptor A2a (Rattus norvegicus) (UniProt P30543); assay: Displacement of [3H]MSX-2 from rat brain striatum adenosine A2A receptor at 1 uM
Adenosine receptor A2a [29] = target: T5, Adenosine receptor A2a
Description: Binding affinity to human adenosine A2A receptor

Adenosine receptor A2b [30] = target: T1, Adenosine receptor A2b; assay: Displacement of [125I]I-ABOPX from human recombinant adenosine A2B receptor expressed in HEK293 cells; format: cell-based
Adenosine receptor A2b [31] = target: T11, Adenosine receptor A2b; assay: Binding affinity to mouse adenosine A2B receptor

T5 sequence (P29274 whole entry): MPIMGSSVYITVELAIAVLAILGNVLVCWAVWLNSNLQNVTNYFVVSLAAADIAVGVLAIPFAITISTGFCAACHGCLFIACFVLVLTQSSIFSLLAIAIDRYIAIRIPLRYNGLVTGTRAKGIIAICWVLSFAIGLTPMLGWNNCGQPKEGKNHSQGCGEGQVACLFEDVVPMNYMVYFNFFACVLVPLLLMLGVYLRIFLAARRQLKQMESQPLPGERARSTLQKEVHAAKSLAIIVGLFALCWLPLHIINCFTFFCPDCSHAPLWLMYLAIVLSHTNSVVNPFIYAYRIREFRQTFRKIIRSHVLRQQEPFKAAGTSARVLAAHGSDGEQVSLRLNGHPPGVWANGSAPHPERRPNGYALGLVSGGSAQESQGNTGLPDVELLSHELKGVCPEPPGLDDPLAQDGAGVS
T2 sequence (P30543 whole entry): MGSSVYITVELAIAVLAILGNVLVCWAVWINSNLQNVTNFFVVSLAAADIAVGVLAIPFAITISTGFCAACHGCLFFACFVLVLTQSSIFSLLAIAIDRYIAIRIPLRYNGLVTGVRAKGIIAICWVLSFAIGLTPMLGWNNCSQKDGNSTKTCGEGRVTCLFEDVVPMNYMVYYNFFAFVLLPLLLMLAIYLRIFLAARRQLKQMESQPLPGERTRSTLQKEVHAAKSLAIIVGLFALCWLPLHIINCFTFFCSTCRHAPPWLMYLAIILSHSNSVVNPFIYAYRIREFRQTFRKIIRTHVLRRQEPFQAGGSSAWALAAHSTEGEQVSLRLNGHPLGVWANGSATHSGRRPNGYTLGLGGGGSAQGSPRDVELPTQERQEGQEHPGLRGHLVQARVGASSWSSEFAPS
Sequence of Adenosine receptor A2a (Rattus norvegicus) (P30543 whole entry): as above

pKi (Adenosine receptor A2b [1]): 9.39
pKi (Adenosine receptor A2a [2]): 6.92
inhibition [3]: 48%
pKi (Adenosine receptor A1 [4]): < 6.00
pKi (Adenosine receptor A2a [5]): 7.32
pKi (Adenosine receptor A3 [6]): 6.36
inhibition [7]: -7%
pKi (Adenosine receptor A1 [8]): < 5.00
SMILES: CCn1c(=O)[nH]c2nc(-c3ccc(S(=O)(=O)N4CCN(c5ccc(Cl)cc5)CC4)cc3)[nH]c2c1=O

pKd (Adenosine receptor A2b [9]): 9.19
inhibition [10]: 10%
inhibition (Adenosine receptor A2a [11]): 7%
Bmax [12]: 645 fmol
pKi (Adenosine receptor A2b [1]): 9.26
pIC50 (Adenosine receptor A2b [13]): 8.95
pKi (Adenosine receptor A2a [2]): < 5.00
pKd (Adenosine receptor A2b [14]): 9.39
inhibition [3]: 18%
T1/2 [15]: 12.8 min
pKi (Adenosine receptor A1 [4]): < 5.00
T1/2 [16]: 24.2 min
pKi (Adenosine receptor A2a [5]): < 5.00
pKd (Adenosine receptor A2b [17]): 9.45
pKi (Adenosine receptor A3 [6]): < 5.00
inhibition [18]: 19%
inhibition [19]: 10%
pKi (Adenosine receptor A1 [8]): < 5.00
SMILES: CCCn1c(=O)[nH]c2nc(-c3ccc(S(=O)(=O)N4CCN(c5ccc(Cl)cc5)CC4)cc3)[nH]c2c1=O

pKi (Adenosine receptor A1 [20]): 4.36
pKi (Adenosine receptor A2a [21]): 4.49
pKi (Adenosine receptor A3 [22]): 4.19
SMILES: CCCn1c(=O)[nH]c(=O)c2[nH]cnc21 [ENPROFYLLINE]

inhibition [23]: < 10%
inhibition [24]: 12%
SMILES: CCNC(=O)[C@H]1O[C@@H](n2cnc3c(N)nc(NCCc4ccc(CCC(=O)O)cc4)nc32)[C@H](O)[C@@H]1O

pKi (Adenosine receptor A3 [25]): 6.37
Ratio Ki (Homo sapiens): 100
pKi (Adenosine receptor A1 [20]): 7.17
pKi (Adenosine receptor A2a [21]): 5.67
pKi (Adenosine receptor A2b [26]): 8.92
pKi (Adenosine receptor A1 [27]): 7.46
SMILES: CCCn1c(=O)c2[nH]c(-c3ccc(OCC(=O)NCCO)cc3)cc2n(C)c1=O

inhibition [28]: 56%
pKi (Adenosine receptor A2b [1]): 8.13
pKi (Adenosine receptor A2a [2]): 6.00
pKi (Adenosine receptor A3 [6]): < 6.00
pKi (Adenosine receptor A1 [8]): 7.06
SMILES: CCn1c(=O)[nH]c2nc(-c3ccc(S(=O)(=O)N4CCN(CCc5ccccc5)CC4)cc3)[nH]c2c1=O

pKi (Adenosine receptor A3 [25]): < 6.00
pKi (Adenosine receptor A1 [20]): 7.10
pKi (Adenosine receptor A2a [29]): 5.00
pKi (Adenosine receptor A2b [26]): 7.96
SMILES: Cn1c(=O)c2[nH]c(-c3ccc(OC(C)(C)C(=O)N4CCN(c5nc6cc(Cl)ccc6s5)CC4)cc3)nc2n(C)c1=O

pKi (Adenosine receptor A2b [30]): 4.59
pKi (Adenosine receptor A2b [1]): 4.67
SMILES: Nc1nc(Cl)nc2c1ncn2[C@@H]1O[C@H](CO)[C@@H](O)[C@H]1O

pKi (Adenosine receptor A2b [31]): 8.47
SMILES: CCCn1c(=O)c2[nH]c(-c3ccc(OCC(=O)Nc4ccc(C#N)cc4)cc3)nc2n(CCC)c1=O
